Data: patent US9822382B2, “Process for making ethanol by fermentation” (Evonik Degussa GmbH, priority 2014, dated 2017)

Experiments:
Type in all cases: cell-based
Yeast [1] = test: Yeast viability and yeast flocculation in fermented mash, sugar cane ethanol production mill trial
Procedure: (§1) Bacterial and yeast cell counts, yeast cell viability and yeast flocculation were determined as described in A. J. Oliveira et al., Curso de treinamento em microbiologia, Piracicaba: FERMENTEC and ESALQ, 1996 and in A. J. Oliveira et al., Métodos para o controle microbiológico na produção de açúcar e álcool, Piracicaba: FERMENTEC, FEALQ and ESALQ, 1996. Bacterial infection rates were calculated as the ratio of the rod bacteria cell count and the yeast cell count.
Examples 9 to 11 were carried out in a sugar cane ethanol production mill operating 6 fermenters in fed-batch. The fermented mash is sent to a centrifuge which separates yeast cream with an average yeast content of 63% by weight. The yeast cream is diluted with water to an average yeast content of 27% by weight and transferred to a stirred yeast cream recovery tank. Diluted yeast cream is passed continuously from this tank to a stirred yeast treatment tank at a rate of from 42 to 127 m^3/h. Sulfuric acid is added to the yeast treatment tank to maintain a pH in the range from 1.8 to 2.8. The average residence time in both the yeast cream recovery tank and the yeast treatment tank is in the range of from 1.3 to 4.0 h. Fermentation is carried out by charging the acidified yeast concentrate to a fermenter over a 1 to 2 h period, followed by feeding sugar cane mash with a sugar content of 22° Brix and a pH of 5.8 to the fermenter over a 6 h period. Fermentation is continued for a further 2 h without feed and the fermented mash is sent to a centrifuge. Bacterial contamination was monitored by microbiological analysis of samples of fermented mash taken before feeding the mash to a centrifuge. Samples were analyzed for bacterial and yeast cell counts and for yeast cell viability and yeast flocculation.
In example 9, equilibrium peroxyacetic acid PERACLEAN® 15 of Evonik was dosed to the yeast treatment tank for 28 h in an amount of 60 ppm during days 3 and 4 of the experiment. pH in the yeast treatment tank was maintained in the range of from 1.84 to 2.02.
In example 10, equilibrium peroxyacetic acid PERACLEAN® 15 of Evonik was dosed to the yeast treatment tank for 43 h during days 6 and 7 of the experiment in an amount that was lowered stepwise from 49 ppm to 20 ppm. pH in the yeast treatment tank was maintained in the range of from 1.97 to 2.60.
In example 11, equilibrium peroxyacetic acid PERACLEAN® 15 of Evonik was dosed to the yeast cream recovery tank on days 2 and 3 of the experiment for 13 h in an amount of 50 ppm, followed by dosing for 28 h in an amount of 30 ppm. During this period the pH in the yeast cream recovery tank was in the range of from 3.0 to 3.3. Then dosing of peroxyacetic acid to the yeast cream recovery tank was stopped and peroxyacetic acid was dosed to the yeast treatment tank for 18 h in an amount of 30 ppm. During this period the pH in the yeast treatment tank was about 2.0.

Yeast [2] = test: Yeast cell count and yeast cell viability, laboratory treatment of yeast cream and fermentation; details: for viability at 50 µg/mL / viability at 50 ppm / viability at 60 ppm: Saccharomyces cerevisiae
Procedure: as §1
(§2) The examples were carried out with a yeast cream obtained by separating yeast from a fermented sugar cane mush from a sugar cane ethanol production mill operating with batch fermentation and yeast recycle. The yeast cream was diluted with water to a yeast cell content of about 24% by weight and the pH of the diluted yeast cream was adjusted to a value of 1.8 by adding sulfuric acid.
(§3) Then 322 ml of acidified diluted yeast cream were placed in a vessel and 678 ml of cane must having a pH of 6.2 were added with mixing in 5 portions with 1 h intervals between additions. Fermentation of the cane must with the acidified diluted yeast cream was carried out at 33° C. for 21 h. The final pH of the fermented mash was 4.8.
(§4) In example 2, equilibrium peroxyacetic acid PERACLEAN® 15 of Evonik was added to the acidified diluted yeast cream in an amount of 50 mg/l and the resulting treated yeast concentrate was kept at 30° C. for 1.7 hours before it was analyzed microbiologically. Thereafter, fermentation was carried out as in example 1.
(§5) Examples 1 and 2 were repeated without adding peroxyacetic acid in example 3 and with addition of equilibrium peroxyacetic acid PERACLEAN® 15 in an amount of 60 mg/l peroxyacetic acid in example 4. The treated yeast cream was kept at 30° C. for 2 hours before it was analyzed microbiologically and fermentation was started.
as §2, with “that operates” for “operating”, “fed-batch” for “batch”, “27%” for “24%”, “weight. The” for “weight and the”, “4.0.” for “adjusted to a value of 1.8 by adding sulfuric acid.”
(§6) In example 6, equilibrium peroxyacetic acid PERACLEAN® 15 of Evonik was added to the diluted yeast cream in an amount of 50 mg/l and the resulting treated yeast concentrate was kept at 30° C. for 2.3 hours before it was analyzed microbiologically.
(§7) In example 8, the pH of the diluted yeast cream was adjusted as in example 7, equilibrium peroxyacetic acid PERACLEAN® 15 of Evonik was added to the acidified diluted yeast cream in an amount of 50 mg/l and the resulting treated yeast concentrate was kept at 30° C. for 2.0 hours before it was analyzed microbiologically.

Rod bacteria = Rod bacteria cell count and infection rate, laboratory treatment of yeast cream and fermentation
Procedure: as §1, §2, §3, §4, §5
as §2, with “that operates” for “operating”, “fed-batch” for “batch”, “27%” for “24%”, “weight. The” for “weight and the”, “4.0.” for “adjusted to a value of 1.8 by adding sulfuric acid.”
as §6, §7

[3] = Example 9, fermenter 2, day 3, 60 ppm to yeast treatment tank during days 3 and 4, pH 1.84 to 2.02
[4] = Example 9, fermenter 2, day 5, after addition (60 ppm, days 3 and 4) was stopped
[5] = Example 9, fermenter 4, day 3, 60 ppm to yeast treatment tank during days 3 and 4, pH 1.84 to 2.02
[6] = Example 10, fermenter 2, day 7, 49 ppm lowered stepwise to 20 ppm to yeast treatment tank during days 6 and 7, pH 1.97 to 2.60
[7] = Example 10, fermenter 2, day 8, after dosing during days 6 and 7
[8] = Example 10, fermenter 2, day 9, after dosing during days 6 and 7
[9] = Example 10, fermenter 3, day 7, 49 ppm lowered stepwise to 20 ppm to yeast treatment tank during days 6 and 7, pH 1.97 to 2.60
[10] = Example 10, fermenter 3, day 8, after dosing during days 6 and 7
[11] = Example 10, fermenter 3, day 9, after dosing during days 6 and 7
[12] = Example 11, fermenter 3, day 2, 50 ppm then 30 ppm to yeast cream recovery tank on days 2 and 3, pH 3.0 to 3.3
[13] = Example 11, fermenter 3, day 4, after recovery tank dosing, 30 ppm to yeast treatment tank for 18 h, pH about 2.0
[14] = Example 11, fermenter 6, day 3, 50 ppm then 30 ppm to yeast cream recovery tank on days 2 and 3, pH 3.0 to 3.3
[15] = Example 2, 50 ppm, pH 1.8, fermented mash after 21 h
[16] = Example 2, 50 ppm, pH 1.8, treated yeast concentrate, 30° C. 1.7 hours
[17] = Example 4, 60 ppm, pH 1.8, fermented mash after 19 h
[18] = Example 4, 60 ppm, pH 1.8, treated yeast concentrate, 30° C. 2 hours
[19] = Example 6, 50 mg/l, no pH adjustment (pH 4.17), treated yeast concentrate, 30° C. 2.3 hours

## CC(=O)OO [peroxyacetic acid]
Yeast [1]; [3]
  Yeast flocculation in %: 53%
  Yeast viability in %: 79%
Yeast [1]; Example 9, fermenter 2, day 4, 60 ppm to yeast treatment tank during days 3 and 4, pH 1.84 to 2.02
  Yeast flocculation in %: 5%
Yeast [1]; [4]
  Yeast flocculation in %: 58%
  Yeast viability in %: 82%
Yeast [1]; [5]
  Yeast flocculation in %: 63%
  Yeast viability in %: 85%
Yeast [1]; Example 9, fermenter 4, day 4, 60 ppm to yeast treatment tank during days 3 and 4, pH 1.84 to 2.02
  Yeast flocculation in %: 0%
Yeast [1]; Example 9, fermenter 4, day 6, after addition (60 ppm, days 3 and 4) was stopped
  Yeast flocculation in %: 55%
Yeast [1]; Example 10, fermenter 2, day 6, 49 ppm lowered stepwise to 20 ppm to yeast treatment tank during days 6 and 7, pH 1.97 to 2.60
  Yeast flocculation in %: 0%
Yeast [1]; [6]
  Yeast flocculation in %: 0%
  Yeast viability in %: 75%
Yeast [1]; [7]
  Yeast flocculation in %: 0%
  Yeast viability in %: 79%
Yeast [1]; [8]
  Yeast flocculation in %: 37%
  Yeast viability in %: 79%
Yeast [1]; Example 10, fermenter 3, day 6, 49 ppm lowered stepwise to 20 ppm to yeast treatment tank during days 6 and 7, pH 1.97 to 2.60
  Yeast flocculation in %: 0%
Yeast [1]; [9]
  Yeast flocculation in %: 0%
  Yeast viability in %: 70%
Yeast [1]; [10]
  Yeast flocculation in %: 0%
  Yeast viability in %: 78%
Yeast [1]; [11]
  Yeast flocculation in %: 45%
  Yeast viability in %: 84%
Yeast [1]; [12]
  Yeast flocculation in %: 38%
  Yeast viability in %: 82%
Yeast [1]; [13]
  Yeast flocculation in %: 0%
  Yeast viability in %: 76%
Yeast [1]; Example 11, fermenter 3, day 6, after the dosing periods
  Yeast flocculation in %: 66%
Yeast [1]; Example 11, fermenter 6, day 2, 50 ppm then 30 ppm to yeast cream recovery tank on days 2 and 3, pH 3.0 to 3.3
  Yeast flocculation in %: 0%
Yeast [1]; [14]
  Yeast flocculation in %: 0%
  Yeast viability in %: 89%
Yeast [1]; Example 11, fermenter 6, day 5, after the dosing periods
  Yeast flocculation in %: 65%
Yeast [2]; [15]
  Yeast cells/ml: 230*10^6 cells/ml
  viability at 50 ppm: 81%
Yeast [2]; [16]
  Yeast cells/ml: 550*10^6 cells/ml
  viability at 50 ppm: 73%
Yeast [2]; [17]
  Yeast cells/ml: 180*10^6 cells/ml
  viability at 60 ppm: 80%
Yeast [2]; [18]
  Yeast cells/ml: 710*10^6 cells/ml
  viability at 60 ppm: 83%
Yeast [2]; [19]
  Yeast cells/ml: 820*10^6 cells/ml
  viability at 50 µg/mL: 86%
Yeast [2]; Example 8, 50 mg/l, pH adjusted to 2.0 with sulfuric acid (pH 2.40), treated yeast concentrate, 30° C. 2.0 hours
  Yeast cells/ml: 830*10^6 cells/ml
Yeast [2]; pH 2.4, Example 8, 50 mg/l, pH adjusted to 2.0 with sulfuric acid (pH 2.40), treated yeast concentrate, 30° C. 2.0 hours
  viability at 50 µg/mL: 88%
Yeast [2]; treatment of the yeast concentrate at pH 1.8 before using it for the fermentation
  yeast viability in the fermentation: does not affect yeast viability
Rod bacteria; [15]
  Infection rate in %: 2.6%
  Rod bacteria cells/ml: 6.1*10^6 cells/ml
Rod bacteria; [16]
  Infection rate in %: 0.5%
  Rod bacteria cells/ml: 2.9*10^6 cells/ml
Rod bacteria; [17]
  Infection rate in %: 0.1%
  Rod bacteria cells/ml: 0.22*10^6 cells/ml
